US20250171495A1, “MUTLI-TARGETED SERINE PROTEASE INHIBITORS FOR TREATMENT OF CANCER AND VIRAL INFECTION” (Washington University, priority 2023, published 2025)

How the values were obtained:
Type in all cases: biochemical
TMPRSS2 = TMPRSS2 (Homo sapiens, UniProt O15393); assay: PS-SCL / HyCoSuL substrate specificity screening, TMPRSS2; conditions: for P2 Position Substrate Activity for TMPRSS2 (percent substrate cleavage/proteolysis): residue fixed at P2 position of substrate library
matriptase = target: T1, matriptase (Homo sapiens, UniProt Q9Y5Y6); assay: HyCoSuL P4-P2 substrate specificity screening, matriptase; conditions: for P2 Position Substrate Activity for matriptase (percent substrate cleavage/proteolysis): residue fixed at P2 position; for P3 Position Various Amino Acids Substrate Activity, matriptase (percent substrate cleavage/proteolysis): residue fixed at P3 position of substrate library; for P4 Position Various Amino Acids Substrate Activity, matriptase (percent substrate proteolysis/cleavage): residue fixed at P4 position of substrate library
T1 sequence (Q9Y5Y6 1-855): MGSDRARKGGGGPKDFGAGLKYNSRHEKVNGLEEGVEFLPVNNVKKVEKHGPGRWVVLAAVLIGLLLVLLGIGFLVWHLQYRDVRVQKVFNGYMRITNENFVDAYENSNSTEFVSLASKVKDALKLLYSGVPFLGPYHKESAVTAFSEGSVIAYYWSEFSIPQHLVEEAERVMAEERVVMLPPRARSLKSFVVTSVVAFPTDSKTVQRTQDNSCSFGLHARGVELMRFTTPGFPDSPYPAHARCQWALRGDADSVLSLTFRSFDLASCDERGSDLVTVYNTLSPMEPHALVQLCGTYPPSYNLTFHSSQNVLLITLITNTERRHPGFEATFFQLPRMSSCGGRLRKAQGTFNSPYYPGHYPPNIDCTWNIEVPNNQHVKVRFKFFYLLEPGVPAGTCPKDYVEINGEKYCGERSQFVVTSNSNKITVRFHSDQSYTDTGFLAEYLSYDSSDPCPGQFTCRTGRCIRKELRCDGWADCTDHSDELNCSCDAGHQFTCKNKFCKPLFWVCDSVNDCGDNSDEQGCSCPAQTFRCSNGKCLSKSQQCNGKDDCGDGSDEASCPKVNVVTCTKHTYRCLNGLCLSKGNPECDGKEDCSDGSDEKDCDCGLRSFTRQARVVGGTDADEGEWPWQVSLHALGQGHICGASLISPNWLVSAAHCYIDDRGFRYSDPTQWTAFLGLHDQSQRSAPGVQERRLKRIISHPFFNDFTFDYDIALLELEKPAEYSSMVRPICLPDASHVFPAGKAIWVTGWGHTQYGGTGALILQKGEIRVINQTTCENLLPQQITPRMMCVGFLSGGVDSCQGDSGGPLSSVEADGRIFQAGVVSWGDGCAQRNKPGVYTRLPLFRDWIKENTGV

hepsin = target: T2, hepsin (Homo sapiens, UniProt P05981); assay: HyCoSuL P4-P2 substrate specificity screening, hepsin; conditions: for P2 Position Substrate Activity for hepsin (percent substrate cleavage/proteolysis): residue fixed at P2 position; for P3 Position Various Amino Acids Substrate Activity, hepsin (percent substrate cleavage/proteolysis): residue fixed at P3 position of substrate library; for P4 Position Various Amino Acids Substrate Activity, hepsin (percent substrate proteolysis/cleavage): residue fixed at P4 position of substrate library
T2 construct: purchased R&D Systems 4776-SE-010
T2 sequence (P05981 163-417 limits assumed): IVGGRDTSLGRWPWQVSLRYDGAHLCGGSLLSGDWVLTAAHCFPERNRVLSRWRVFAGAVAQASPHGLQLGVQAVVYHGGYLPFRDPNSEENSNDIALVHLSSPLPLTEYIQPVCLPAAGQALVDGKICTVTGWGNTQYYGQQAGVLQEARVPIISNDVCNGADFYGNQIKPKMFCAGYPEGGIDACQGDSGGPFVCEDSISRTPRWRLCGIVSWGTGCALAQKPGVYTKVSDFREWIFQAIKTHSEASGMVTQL
T2 sequence (P05981 1-162 partner limits assumed): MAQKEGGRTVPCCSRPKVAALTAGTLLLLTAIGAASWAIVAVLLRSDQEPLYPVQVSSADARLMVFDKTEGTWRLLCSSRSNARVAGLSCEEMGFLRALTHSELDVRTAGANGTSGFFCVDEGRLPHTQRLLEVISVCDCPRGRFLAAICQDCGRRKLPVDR

HGFA = target: T3, HGFA (Homo sapiens, UniProt Q04756); assay: HyCoSuL P4-P2 substrate specificity screening, HGFA; conditions: for P2 Position Substrate Activity for HGFA (percent substrate cleavage/proteolysis): residue fixed at P2 position; for P3 Position Various Amino Acids Substrate Activity, HGFA (percent substrate cleavage/proteolysis): residue fixed at P3 position of substrate library; for P4 Position Various Amino Acids Substrate Activity, HGFA (percent substrate proteolysis/cleavage): residue fixed at P4 position of substrate library
T3 sequence (Q04756 373-655): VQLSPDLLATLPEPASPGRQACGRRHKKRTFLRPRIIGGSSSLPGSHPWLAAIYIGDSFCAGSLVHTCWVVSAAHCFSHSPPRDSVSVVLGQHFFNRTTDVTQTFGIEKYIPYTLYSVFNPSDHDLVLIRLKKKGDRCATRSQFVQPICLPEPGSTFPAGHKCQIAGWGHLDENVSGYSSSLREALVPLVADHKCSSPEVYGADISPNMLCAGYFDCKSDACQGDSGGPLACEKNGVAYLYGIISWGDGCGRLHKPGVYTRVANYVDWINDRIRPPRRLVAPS

[1] = best recognized amino acid set to 100%
[2] = residue fixed at P3 position of substrate library
[3] = residue fixed at P4 position of substrate library
[4] = P1-Arg HyCoSuL, 100 μM, best recognized amino acid set to 100%
[5] = residue fixed at P3 position, P1-Arg HyCoSuL, 100 μM, best recognized amino acid set to 100%
[6] = residue fixed at P4 position, P1-Arg HyCoSuL, 100 μM, best recognized amino acid set to 100%

Chain of TMPRSS2 (O15393 whole entry): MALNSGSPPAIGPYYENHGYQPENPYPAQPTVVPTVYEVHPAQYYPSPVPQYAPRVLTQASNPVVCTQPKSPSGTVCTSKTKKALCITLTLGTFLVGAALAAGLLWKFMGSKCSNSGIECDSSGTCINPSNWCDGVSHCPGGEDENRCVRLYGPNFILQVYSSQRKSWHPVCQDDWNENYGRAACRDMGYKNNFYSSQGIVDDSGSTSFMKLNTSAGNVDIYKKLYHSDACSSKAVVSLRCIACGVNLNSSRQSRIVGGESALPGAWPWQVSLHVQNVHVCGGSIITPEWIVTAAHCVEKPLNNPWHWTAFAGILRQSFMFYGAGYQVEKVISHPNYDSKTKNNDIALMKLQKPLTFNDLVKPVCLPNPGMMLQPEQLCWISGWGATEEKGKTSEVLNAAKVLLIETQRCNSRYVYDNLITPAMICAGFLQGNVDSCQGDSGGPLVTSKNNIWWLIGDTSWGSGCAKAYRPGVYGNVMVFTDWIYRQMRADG

Molecule	P2 Position Substrate Activity for TMPRSS2 (percent substrate cleavage/proteolysis) (TMPRSS2; [1])	P3 Position Various Amino Acids Substrate Activity, TMPRSS2 (percent substrate cleavage/proteolysis) (TMPRSS2; [2])	P4 Position Various Amino Acids Substrate Activity, TMPRSS2 (percent substrate proteolysis/cleavage) (TMPRSS2; [3])	P3 Position Substrate Activity for TMPRSS2 (percent substrate cleavage/proteolysis) (TMPRSS2; residue fixed at P3 position of substrate library, best recognized amino acid set to 100%)	P4 Position Substrate Activity for TMPRSS2 (percent substrate cleavage/proteolysis) (TMPRSS2; residue fixed at P4 position of substrate library, best recognized amino acid set to 100%)	P2 Position Substrate Activity for matriptase (percent substrate cleavage/proteolysis) (matriptase; [4])	P3 Position Various Amino Acids Substrate Activity, matriptase (percent substrate cleavage/proteolysis) (matriptase)	P3 Position Substrate Activity for matriptase (percent substrate cleavage/proteolysis) (matriptase; [5])	P4 Position Various Amino Acids Substrate Activity, matriptase (percent substrate proteolysis/cleavage) (matriptase)	P4 Position Substrate Activity for matriptase (percent substrate cleavage/proteolysis) (matriptase; [6])	P2 Position Substrate Activity for hepsin (percent substrate cleavage/proteolysis) (hepsin; [4])	P3 Position Substrate Activity for hepsin (percent substrate cleavage/proteolysis) (hepsin; [5])	P4 Position Substrate Activity for hepsin (percent substrate cleavage/proteolysis) (hepsin; [6])	P2 Position Substrate Activity for HGFA (percent substrate cleavage/proteolysis) (HGFA; [4])	P3 Position Substrate Activity for HGFA (percent substrate cleavage/proteolysis) (HGFA; [5])	P4 Position Substrate Activity for HGFA (percent substrate cleavage/proteolysis) (HGFA; [6])	P3 Position Various Amino Acids Substrate Activity, hepsin (percent substrate cleavage/proteolysis) (hepsin)	P4 Position Various Amino Acids Substrate Activity, hepsin (percent substrate proteolysis/cleavage) (hepsin)	P3 Position Various Amino Acids Substrate Activity, HGFA (percent substrate cleavage/proteolysis) (HGFA)	P4 Position Various Amino Acids Substrate Activity, HGFA (percent substrate proteolysis/cleavage) (HGFA)
NC1(C(=O)O)CCCC1 [AC5C]	0.00%	0.00%	17.02%	–	–	–	–	–	–	–	–	–	–	–	–	–	–	–	–	–
N[C@@H](CCCCOCc1ccccc1)C(=O)O [L-Nle(O-Bzl)]	52.14%	–	–	71.88%	63.90%	0%	75%	75.40%	49%	48.54%	0.00%	82.17%	91.83%	0.00%	30.67%	16.90%	–	–	–	–
N[C@@H](Cc1ccc(F)cc1)C(=O)O [L-Phe(4-F)]	100.00%	14.82%	21.80%	–	–	65%	11%	–	8%	–	32.86%	–	–	4.84%	–	–	5.16%	27.78%	15.01%	11.22%
O=C(O)[C@@H]1CCCCN1 [L-Pip]	24.73%	0.00%	15.31%	–	–	10%	0%	–	11%	–	10.66%	–	–	1.75%	–	–	1.64%	34.68%	0.83%	9.25%
Cn1cc(C[C@H](N)C(=O)O)c2ccccc21 [L-Trp(Me)]	32.33%	21.50%	16.80%	–	–	1%	7%	–	6%	–	7.81%	–	–	1.12%	–	–	0.00%	0.00%	18.14%	2.49%
CC(C)[C@H](N)C(=O)O [L-Val]	28.86%	19.38%	34.19%	–	–	8%	18%	–	29%	–	51.85%	–	–	8.33%	–	–	16.77%	43.08%	9.51%	11.66%
CC(C)CC[C@H](N)C(=O)O [L-hLeu]	8.15%	35.41%	53.91%	–	–	5%	25%	–	27%	–	14.44%	–	–	72.69%	–	–	13.84%	41.61%	23.44%	14.86%
D-Ala	0.00%	0.00%	27.00%	–	–	0%	2%	–	6%	–	0.00%	–	–	0.00%	–	–	48.09%	18.44%	9.84%	7.11%
L-Met	8.64%	45.55%	38.95%	–	–	5%	41%	–	–	–	–	–	–	–	–	–	–	–	–	–
